Values quoted from earlier work, collected in US20090143360A1, “Oxcarbazepine Formulation” (priority 2005, published 2009).

Solubility in water: very low
SMILES: NC(=O)N1c2ccccc2CC(=O)c2ccccc21 [Oxcarbazepine, 10,11-Dihydro-10-oxo-5H-dibenz[b,f]azepine-5-carboxamide]
